The data set can be described thus: Actual dose of vitamin on inkjet-printed areas, immersed in water, by UV/Vis absorbance. The format is physicochemical. As to conditions: for Vitamin B3 dose, measured: 262 nm. On the procedure: Two different ink solutions were used to print the vitamins onto the substrates. […] The solutions were filtered with 0.2 μm polypropylene membrane filter (Whatman, GE Healthcare, Piscataway, N.J., USA) before printing. Inkjet printing was performed with a […] printer (Fujifilm […] Clara, Calif., USA). In the printer, a MEMS-based cartridge-styled printhead with 16 nozzles linearly spaced at 254 μm that produce a nominal drop size of […] was used. Printing was performed in ambient conditions (relative humidity 45.5±5%, 21±1° C.) with a single nozzle using firing voltage of 35 V. The cartridge temperature was 30° C., and the drops were deposited at a drop spacing of 10 μm, 20 μm and 30 μm. The vitamins were printed in squares of 1 cm×1 cm on normal copy paper (n=6) and on multilayer curtain coated paper (n=1). […] Each printed area was immersed into predetermined amount of water and vigorously shaken. […] The calibration curves were done in water, as well.

Turning to `Cc1cc2nc3c(=O)[nH]c(=O)nc-3n(C[C@H](O)[C@H](O)[C@H](O)COP(=O)(O)O)c2cc1C` [Vitamin B2, riboflavin sodium phosphate], the “Vitamin B2 dose, measured” value is given as 0.6255 mg (drop spacing 10, 4 h incubation in water, 267 nm, theoretical 0.32 mg); 0.6459 mg (drop spacing 10, 4 h incubation in water, 373 nm, theoretical 0.32 mg); 0.5847 mg (drop spacing 10, second set of rows (no time heading printed), 267 nm, theoretical 0.32 mg); 0.6141 mg (drop spacing 10, second set of rows (no time heading printed), 373 nm, theoretical 0.32 mg); 0.1337 mg (drop spacing 20, 4 h incubation in water, 267 nm, theoretical 0.08 mg); 0.1403 mg (drop spacing 20, 4 h incubation in water, 373 nm, theoretical 0.08 mg). In addition, the “Vitamin B2 dose, measured” value is on record as 0.1199 mg (drop spacing 20, second set of rows (no time heading printed), 267 nm, theoretical 0.08 mg); 0.1276 mg (drop spacing 20, second set of rows (no time heading printed), 373 nm, theoretical 0.08 mg); 0.0623 mg (drop spacing 30, 4 h incubation in water, 267 nm, theoretical 0.035 mg); 0.0658 mg (drop spacing 30, 4 h incubation in water, 373 nm, theoretical 0.035 mg); 0.0521 mg (drop spacing 30, second set of rows (no time heading printed), 267 nm, theoretical 0.035 mg); 0.0560 mg (drop spacing 30, second set of rows (no time heading printed), 373 nm, theoretical 0.035 mg).
Take `O=C(O)c1cccnc1` [Vitamin B3, niacin]: the “Vitamin B3 dose, measured” value is, setting by setting: (drop spacing 10, 4 h incubation in water, 1 cm x 1 cm printed area, theoretical 0.501 mg) 0.7594 mg; (drop spacing 10, 24 h incubation in water, theoretical 0.501 mg) 0.7323 mg; (drop spacing 20, 4 h incubation in water, 1 cm x 1 cm printed area, theoretical 0.125 mg) 0.2213 mg; (drop spacing 20, 24 h incubation in water, theoretical 0.125 mg) 0.2142 mg; (drop spacing 30, 4 h incubation in water, 1 cm x 1 cm printed area, theoretical 0.056 mg) 0.0717 mg; (drop spacing 30, 24 h incubation in water, theoretical 0.056 mg) 0.0687 mg.
